Data on six molecules can be found in patent publication US8097643B2, “Indol-4 sulfonamide derivatives, their preparation and their use 5-ht-6 as modulators” (Laboratorios del Dr. Esteve S. A., priority 2003, dated 2012).

Data set [1] addresses T1, recombinant human 5HT6 receptor (Homo sapiens, UniProt P50406).
T1 construct: purchased Receptor Biology; host or cells: HEK-293 cell membranes
The data set is described as follows: Binding to the 5HT6 serotonin receptor ([3H]-LSD radioligand). The following applies: 10^−6 M compound; [3H]-LSD 2.7 nM; HEK-293 cell membranes. As for the experimental part: Binding to the 5Ht6 Serotonin Receptor
HEK-293 cell membranes expressing the recombinant human 5HT6 receptor were supplied by Receptor Biology. […] Incubation ends by quick filtration in a Harvester Brandel Cell through fiberglass filters of the Schleicher & Schuell GF 3362 trademark, pretreated with a 0.5% polyethyleneimine solution. […] The vials are left to equilibrate for several hours prior to their counting in a 1414 Wallac Winspectral scintillation counter. […] The assays are carried out in triplicate. The inhibition constants (Ki, nM) are calculated by non-linear regression analysis using the EBDA/LIGAND program [Munson and Rodbard, Analytical Biochemistry, 1980, 107, 220].
Binding of the new compounds of general formula (Ia and Ib and Ic) to the 5-HT6 receptor was determined as previously described.

Usually melting point stands for the temperature of the solid-liquid transition. A word on the inhibition: it is the relative decrease from the control value, in per cent.

T1 sequence (P50406 whole entry): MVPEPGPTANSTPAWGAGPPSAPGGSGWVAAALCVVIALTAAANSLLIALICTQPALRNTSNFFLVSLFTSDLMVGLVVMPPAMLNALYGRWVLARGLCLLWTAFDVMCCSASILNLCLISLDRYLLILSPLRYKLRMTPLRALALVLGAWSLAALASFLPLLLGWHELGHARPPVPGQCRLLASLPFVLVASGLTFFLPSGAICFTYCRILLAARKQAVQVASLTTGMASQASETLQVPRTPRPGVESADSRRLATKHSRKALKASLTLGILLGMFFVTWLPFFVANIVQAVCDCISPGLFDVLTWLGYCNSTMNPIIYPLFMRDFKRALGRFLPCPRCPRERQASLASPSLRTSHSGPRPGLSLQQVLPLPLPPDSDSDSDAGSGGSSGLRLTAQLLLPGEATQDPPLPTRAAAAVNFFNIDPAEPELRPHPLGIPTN

Molecule `Cc1c(S(=O)(=O)Nc2cccc3c2ccn3CCN(C)C)sc2ccc(Cl)cc12` [Example 1, N-[1-(2-dimethylaminoethyl)-1H-indole-4-yl]-5-chloro-3-methyl-benzo[b]thiophene-2-sulfonamide] returned a melting point of 78 to 80 °C.
Molecule `CN(C)CCn1ccc2c(NS(=O)(=O)c3ccc(-c4ccccc4)cc3)cccc21` [Example 4, N-[1-(2-dimethylaminoethyl)-1H-indole-4-yl]-4phenylbenzenesulfonamide] yielded a melting point of 137 to 140 °C.
Same read-out and setting: the figure for `CN(C)CCn1ccc2c(NS(=O)(=O)CCc3cccc4ccccc34)cccc21` [Example 5, N-[1-(2-dimethylaminoethyl)-1H-indole-4-yl]-2-(naphthalene-1-yl)-ethanesulfonamide] is 47 to 54 °C.
Consider `CN(C)CCn1ccc2c(NS(=O)(=O)c3cc(Cl)cc(Cl)c3)cccc21` [Example 7, N-[1-(2-dimethylaminoethyl)-1H-indole-4-yl]-3,5-dichlorobenzenesulfonamide], for which the melting point was 113 to 118 °C. The inhibition at 1 µM in data set [1] is 72.3%.
Consider “N-[1-(2-dimethylaminoethyl)-1H-indole-4-yl]-naphtalene-1-sulfonamide [Example 3]”, for which the “% Inhibition 10^−6 M” value in data set [1] is 94.8%.
“N-[1-(2-dimethylaminoethyl)-1H-indole-4-yl]-naphtalene-2-sulfonamide [Example 2]”: the “% Inhibition 10^−6 M” value in data set [1] was 104.3%.
